# Entries after “also recorded” stand apart in the source; their conditions may differ.
# Key:
# [1] = test system: secretion of hTM5 in LS-180 cells; assay: Secretion of hTM5 by 35S-methionine-labeled LS-180 cells (chase with drugs, immunoprecipitation of culture medium, SDS-PAGE-fluorography, densitometry of 31 kDa band); format: cell-based, human; details: PMA 10 μM; for effect on the secretion of hTM5 (in words): 7E12H12 and LC-1 immunoprecipitations (FIGS. 7B and 7C); for effect on the secretion of hTM5 (in words) / stimulation of the secretion of hTM5 (31 kDa band, densitometry) compared to only DMSO treatment: A23187 2 μM, 2 h chase; for stimulation of the secretion of hTM5 (31 kDa band, densitometry) compared to only DMSO treatment: LS-180 culture medium; for effect of inhibitors of secretion on the secretion of hTM5 (in words): LC-1 immunoprecipitation (FIG. 7D), monensin 10 μM, methylamine 10 mM added during the chase
# Procedure: (§1) A) Culture supernatant of LS-180 cells, labeled with […] (100 μCi/ml) for 16 h and chased for 2 h incubated with various drugs, was immunoprecipitated and analyzed by 3–12% SDS-PAGE-fluorography. For untreated cells, 10 μl/ml of DMSO was added during the chase. Immunoprecipitation was performed using 7E12H12 (lanes 1–4) or LC-1 (lanes 5–8) mAbs. Lanes 1 and 5 show the immunoprecipitation profile of the culture supernatant from untreated cells. Note the presence of a 31 kDa protein in lanes 1 and 5. The effect of secretagogues was examined by addition of 2 μM A23187 (lanes 2 and 7) or 10 μM PMA (lanes 3 and 6) during the chase. To examine the combined effect, A23187 (2 μM) and PMA (10 μM) were added together (lanes 4 and 8, respectively). B and C) For quantitative determination, a densitometric analysis of the 31 kDa band, coimmunoprecipitated with CEP (lanes 1–4) or hTM5 (lane 5–8) was performed with a 1 square millimeter window using a BioRad 670 densitometer after overnight exposure of the gel. Histograms B and C represent lanes 1–4 and 5–8 respectively. D) Effect of inhibitors of secretion on the secretion of hTM5. The inhibitors were added during the chase and the culture medium was immunoprecipitated with LC-1 mAb. Lane-1: PMA (10 μM), Lane-2: DMSO only, Lane-3: monensin (10 μM), and Lane-4: methylamine (10 mM) and analyzed by 3–12% gradient SDS-PAGE-fluorography.
# To examine the possible association of hTM5 with the colon epithelium-specific protein (CEP), reactive with 7E12H12 monoclonal antibody, we adopted the protocols for radiolabeling, chase and drug treatment used in the study of regulated and unregulated secretion of glycoproteins from colon cancer cells (McCool DJ., et al., Biochem J. 1995; 312: 125–33; and Brion C., et al., J. Biol. Chem. 1992; 267: 1477–83). LS-180 cells were labeled with ^35S-methionine by treatment with methionine-free medium supplemented with 5% dialyzed fetal bovine serum and ^35S-methionine (100 μCi/ml) for 16 hours. Labeling was terminated by washing the cells two times with PBS followed by chase with regular DME for 2 hr. To examine the effects of stimulators and inhibitors of secretion, appropriate drugs were added during the chase period as described (McCool et al., supra; and Brion, et al., supra). Immunoprecipitations were performed on the culture medium as described in Kesari, K V and Geliebter, J. Immunol. Letts 1993: 38: 77–83. After the chase, the culture medium was collected, centrifuged to remove any insoluble material, and mixed with one tenth volume of 10× lysis buffer (500 mM Tris Cl, […], 5% NP40, and protease inhibitor cocktail, Complete, Boehringer-Mannheim, GMBH, Germany). To reduce nonspecific binding, the culture medium, where LS-180 cells were grown, was preabsorbed with protein G agarose (GIBCO-BRL, NY) for 16 h at 4° C. Immunoprecipitation was carried out on ice with purified monoclonal antibodies (5 μg/ml) or ascites (10 μl/ml) for 2 h and the immune complexes were collected on Protein G Agarose. To collect IgM immune complexes, protein G Agarose was pre-coated with affinity purified rabbit anti mouse IgM-μ chain-specific immunoglobulins (2 mg IgG/ml gel). The immune complexes were washed three times by centrifugation with ice cold washing buffer-1 (50 mM Tris Cl, pH 7.4, 150 mM NaCl, 5 mM EDTA, and 0.5% NP40), followed by one wash in buffer-2 (50 mM Tris Cl, pH 7.4, 500 mM MaCl, 5 mM EDTA, and 0.5% NP40), and once with buffer-3 (50 mM Tris Cl, pH 7.4).
# To investigate whether the release of hTM5 from LS-180 cells is an active process, the effect of known stimulators (secretagogues), and inhibitors of secretion was examined in the present invention. Two secretagogues, the Ca ^2 ionophore A23187, and phorbol-12-myristate-13-acetate (PMA) have been used to explore the secretory pathways in LS-180 cells (McCool D J et al (1995) supra). […]
# [2] = test system: mucin secretion in LS-180 cells; details: McCool D J, et al. (1995); cited from earlier work
# [3] = test system: secretion of CEP in LS-180 cells; assay: Secretion of CEP by 35S-methionine-labeled LS-180 cells (immunoprecipitation with 7E12H12); format: cell-based, human; details: 7E12H12 immunoprecipitation (FIG. 7A, lanes 1-4); A23187 2 μM, PMA 10 μM, or both
# Procedure: as §1, with “gradient SDS-PAGE-fluorography. […]” for “gradient SDS-PAGE-fluorography.”
# CEP = assay: Cell surface expression of CEP; format: cell-based
Compound,effect on the secretion of hTM5 (in words) [1],"stimulation of the secretion of hTM5 (31 kDa band, densitometry) compared to only DMSO treatment ([1]; 7E12H12 immunoprecipitation (FIG. 7B))","stimulation of the secretion of hTM5 (31 kDa band, densitometry) compared to only DMSO treatment ([1]; LC-1 immunoprecipitation (FIG. 7C))",effect on mucin secretion in LS-180 cells [2],effect on secretion of CEP (in words) [3],effect of inhibitors of secretion on the secretion of hTM5 (in words) [1],"cell surface expression of CEP, sensitivity to drug (CEP)"
CNc1ccc2oc(C[C@H]3O[C@@]4(CC[C@H]3C)O[C@H]([C@H](C)C(=O)c3ccc[nH]3)[C@H](C)C[C@H]4C)nc2c1C(=O)O [A23187],increased,4.5 fold,7.8 fold,stimulate,unaffected,,
"CCCCCCCCCCCCCC(=O)O[C@@H]1[C@@H](C)[C@@]2(O)[C@@H](C=C(CO)C[C@]3(O)C(=O)C(C)=C[C@@H]23)[C@@H]2C(C)(C)[C@]12OC(C)=O [PMA, phorbol-12-myristate-13-acetate]",almost totally inhibited,,,stimulate,unaffected,absence of hTM5,
CN [methylamine],,,,,,inhibited; also recorded: absence of hTM5,
CC[C@@]1([C@@H]2O[C@@H]([C@H]3O[C@@](O)(CO)[C@H](C)C[C@@H]3C)C[C@@H]2C)CC[C@H]([C@]2(C)CC[C@]3(C[C@H](O)[C@@H](C)[C@@H]([C@@H](C)[C@@H](OC)[C@H](C)C(=O)O)O3)O2)O1 [monensin],,,,,,inhibited; also recorded: absence of hTM5,sensitive

# Source: patent US7122336B2, “Therapeutic and diagnostic methods for ulcerative colitis and associated disorders” (University of Medicine & Dentistry of New Jersey, priority 2000, dated 2006)
